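Method: 48-hour compound exposure of cells in 96-well plates, five concentrations, linear interpolation of endpoints. GI50 marks 50% less growth.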 Active and inactive are the calls of the source. Cut-off read from the data, not from the text of the source: active = GI50 up to about 1.1 µM and inactive = higher.

Some test systems named below: SNB-78; DLD-1; RXF 631; HOP-18; M19-MEL; LXFL 529; XF498.
What all share (assay): inhibition of tumour cell growth, NCI panel, 48 h

As to `COc1ccc(NN=C2C(=O)CCC2=O)cc1`, the GI50 with SNB-78, in the assay with DLD-1, with RXF 631, with HOP-18 and in the assay with M19-MEL was > 100 µM (inactive) each time.
For `CCOC(=O)C1=C(Nc2ccc(Cl)c(Cl)c2)OC/C1=N\NC(=O)Cc1ccccc1`, the GI50 was > 100 µM (inactive) with SNB-78; > 100 µM (inactive) with LXFL 529; > 100 µM (inactive) in the assay on DLD-1; > 100 µM (inactive) in the assay on XF498; 87.7 µM (inactive) in the assay on HOP-18; > 100 µM (inactive) in the assay with M19-MEL.
As to `COC(=O)C1=CC(=O)[C@@H]2CCCC[C@H]12`, the GI50 with SNB-78, with LXFL 529, in the assay with DLD-1, in the assay on RXF 631, in the assay with HOP-18 and in the assay on M19-MEL was > 100 µM (inactive) in each case.
As for `CC(=O)N(CCN)CCN`, the GI50 in the assay on SNB-78 is > 10 µM (inactive); with LXFL 529, > 10 µM (inactive); in the assay on DLD-1, > 100 µM (inactive); in the assay on RXF 631, > 10 µM (inactive); in the assay with XF498, > 100 µM (inactive); with M19-MEL, > 10 µM (inactive).
As for `CN1CCCC2(CCCc3ccccc32)C1` (stereo not drawn), the GI50 in the assay with SNB-78, in the assay on LXFL 529, in the assay on DLD-1, with RXF 631 and with M19-MEL was > 100 µM (inactive) each time.
`CC1=C(Cl)C=CP(=O)(OC(C)C)C1` (stereo not drawn): the GI50 is > 100 µM (inactive) in the assay with SNB-78; > 100 µM (inactive) in the assay with LXFL 529; 35.7 µM (inactive) in the assay on DLD-1; 33.1 µM (inactive) in the assay with RXF 631; > 100 µM (inactive) in the assay with HOP-18; > 100 µM (inactive) with M19-MEL.
On to `CC(=O)Nc1ccc(/C=C/c2ccc(NC(=O)Nc3ccc(/C=C/c4ccc(NC(C)=O)cc4S(=O)(=O)O)c(S(=O)(=O)O)c3)cc2S(=O)(=O)O)c(S(=O)(=O)O)c1`, for which the GI50 in the assay on SNB-78 was > 100 µM (inactive); in the assay with DLD-1 it was > 100 µM (inactive); in the assay on XF498 it was > 48 µM (inactive); in the assay with HOP-18 it was > 95.5 µM (inactive); with M19-MEL it was > 100 µM (inactive).
Consider `COc1cc2c(cc1OC)[C@@H](C(O)c1ccccc1)NCC2` (stereo partly drawn), for which the GI50 with SNB-78, in the assay on LXFL 529, with DLD-1, in the assay with RXF 631, in the assay on XF498 and with M19-MEL was > 100 µM (inactive) throughout.
On to `c1ccc(-c2ccnc3c2ccc2c(-c4ccccc4)ccnc23)cc1`, for which the GI50 was 5.05 µM (inactive) in the assay with SNB-78; 0.71 µM (active) with LXFL 529; 2.47 µM (inactive) in the assay with DLD-1; 0.604 µM (active) in the assay with RXF 631; 2.34 µM (inactive) in the assay on HOP-18; 1.74 µM (inactive) in the assay on M19-MEL.
Regarding `CC[C@@]1(O)C[C@H](OC2CC(N(C)C)C(OC3CC(O)C(OC4CC(O)C(O)C(C)O4)C(C)O3)C(C)O2)c2c(cc3c(c2O)C(=O)c2c(O)ccc(O)c2C3=O)[C@H]1C(=O)OC` (stereo partly drawn), the GI50 is 0.0776 µM (active) in the assay on SNB-78; 0.0328 µM (active) in the assay on DLD-1; 0.0189 µM (active) in the assay with XF498; 0.136 µM (active) in the assay on HOP-18; 0.0121 µM (active) with M19-MEL.
On to `COc1ccc(-c2onc(-c3c(C)cc(C)cc3C)c2C2=NCCN2)cc1`, for which the GI50 in the assay with SNB-78 was 35.2 µM (inactive); with LXFL 529, > 100 µM (inactive); with DLD-1 it was 74 µM (inactive); in the assay with RXF 631, 70.6 µM (inactive); in the assay on HOP-18, 10.9 µM (inactive); in the assay with M19-MEL, 86.5 µM (inactive).
On to `CCCCCCCCCCCCC(=O)CCCCC(=O)O`, for which the GI50 in the assay with SNB-78 is 72.6 µM (inactive); in the assay on LXFL 529, 18 µM (inactive); in the assay on DLD-1 it was 17.9 µM (inactive); with RXF 631, 18.7 µM (inactive); in the assay on HOP-18, 16 µM (inactive); in the assay with M19-MEL, 18.2 µM (inactive).

The values above are taken from ChEMBL document CHEMBL1201862, “PubChem BioAssay data set” (2004).
